Laboratory results as given in PubChem BioAssay AID1549 (Sanford-Burnham Center for Chemical Genomics, 2009).
The source made the active and inactive calls. How the calls were made is not given here.

Target: Influenza A virus M2 proton channel (A/TW/4845/1999 H1N1)
Test: M2 proton channel binding, NMR based, influenza A virus H1N1 strain (AID 1549)
Details: NMR binding screen, M2 protein

SMILES | Kd
CNC(C)[C@H](O)c1ccccc1 (stereo not given in full) | > 4 mM (inactive)
Cc1ccc2[nH]c3nc(=S)[nH]nc3c2c1 | > 4 mM (inactive)
Cc1cc(C(=O)NCc2cccnc2)cs1 | > 4 mM (inactive)
Cc1nnc2n(c1=O)N=C(c1ccccc1)CS2 | > 4 mM (inactive)
NCc1ccc(S(=O)(=O)O)cc1 | > 4 mM (inactive)
CN1CCn2c1nc(N1CCOCC1)nc2=O | > 4 mM (inactive)
Cc1cc2ncc(C(=O)Nc3ccccc3)c(C)n2n1 | > 4 mM (inactive)
Cc1oc(-c2ccccc2)nc1CC(=O)O | > 4 mM (inactive)
O=C(O)CCC1NCC2CC1CN1CCCCC21 (stereo not given) | > 4 mM (inactive)
O=C(Nc1ccon1)c1cccc(Cl)c1 | > 4 mM (inactive)
CC1=CC2C(C(C)C)CCC(C)(O)C2CC1 (stereo not given) | > 4 mM (inactive)
CN1CCN(C(=O)c2ccccc2N)CC1 | > 4 mM (inactive)
COc1ccc(-c2ccc(=O)n(CC(N)=O)n2)cc1 | > 4 mM (inactive)
CC(=O)O[C@@H]1CC2C(C)(C)C(=O)[C@@H]3O[C@@H]3[C@]2(C)C2CC[C@]3(C)C(=CC(=O)O[C@H]3c3ccoc3)[C@@]21C (stereo not given in full) | > 4 mM (inactive)
COc1ccccc1-c1noc(-c2ccco2)n1 | > 4 mM (inactive)
O=C(O)CCn1c(=O)oc2ccccc21 | > 4 mM (inactive)
CS(=O)(=O)NC1CCN(Cc2ccccc2)CC1 | > 4 mM (inactive)
CCc1ccc(/C=N/n2cnnc2)cc1 | > 4 mM (inactive)
Clc1ccc(SCCn2cncn2)cc1 | > 4 mM (inactive)
Cc1nn(-c2ccccc2)nc1C(N)=O | > 4 mM (inactive)

SMILES | Kd
CC(C)(O)[C@@H]1Cc2cc3ccc(=O)oc3cc2O1 | > 4 mM (inactive)
CC(=O)N=c1cccc(NC(C)=O)n1O | > 4 mM (inactive)
Nc1ccc(-n2cccn2)cc1 | > 4 mM (inactive)
NCc1cn2ccccc2n1 | > 4 mM (inactive)
CN(C)C(=O)Oc1ccc(-c2nnco2)cc1 | > 4 mM (inactive)
CC(=O)N1CCN(C2CCSC2)CC1 (stereo not given) | > 4 mM (inactive)
CCCCn1c(S(=O)(=O)O)nc2ccccc21 | > 4 mM (inactive)
Cc1ccc(N2C(=O)C3C4C=CC(O4)C3C2=O)cc1 (stereo not given) | > 4 mM (inactive)
CC(O)C(=O)N/N=C/c1ccccc1 (stereo not given) | > 4 mM (inactive)
CCOC(=O)c1c(C)nc2c(C#N)cnn2c1C | > 4 mM (inactive)
Fc1cccc(F)c1CN1CCN(c2ncccn2)CC1 | > 4 mM (inactive)
N#C/C(=C\c1ccc[nH]1)S(=O)(=O)c1ccccc1 | > 4 mM (inactive)
O=C1CNc2cc(C(=O)O)ccc2N1 | > 4 mM (inactive)
C=C1C2CC[C@@]3(C)[C@H](c4ccoc4)OC(=O)C[C@]13O[C@H]1CC(=O)C(C)(C)[C@H](C(O)C(=O)OC)[C@@]21C (stereo not given in full) | > 4 mM (inactive)
NC(=O)c1ccc(C(N)=O)cc1 | > 4 mM (inactive)
O=c1c2ccccc2nc2n1CCS2 | > 4 mM (inactive)
CSc1nc(-c2ccco2)nn1S(C)(=O)=O | > 4 mM (inactive)
CC(C)Nc1nc2n(c(=O)n1)CCN2C(C)C | > 4 mM (inactive)
O=C1C2CC=CCC2C(=O)N1c1ccccc1O (stereo not given) | > 4 mM (inactive)
O=c1cc(-c2cc(O)c(O)c(O)c2)oc2cc(O)cc(O)c12 | > 4 mM (inactive)

SMILES | Kd
CC(=O)NC1=C(N(C)C)C(=O)c2ccccc2C1=O | > 4 mM (inactive)
C=C(C)C1Cc2c(ccc(C(=O)O)c2O)O1 (stereo not given) | > 4 mM (inactive)
CC(CCC(=O)O)[C@H]1CCC2C3C[C@H](O)[C@@H]4C[C@H](O)CC[C@]4(C)C3CC[C@@]21C (stereo not given in full) | > 4 mM (inactive)
CCOC(=O)CC1Sc2ccccc2NC1=O (stereo not given) | > 4 mM (inactive)
CC(O)(C(=O)O)c1ccccc1 (stereo not given) | > 4 mM (inactive)
Cc1ccc(C(=O)N2CCOCC2)cc1Cl | > 4 mM (inactive)
O=C1C2C3CCC(O3)C2C(=O)N1c1cccc(F)c1 (stereo not given) | > 4 mM (inactive)
Cc1cc(C)nc(N(C#N)Cc2ccccc2)n1 | > 4 mM (inactive)
O=C(CC1NCCNC1=O)Nc1ccccc1 (stereo not given) | > 4 mM (inactive)
CC1(C)CC2C1CCC1(C)OC2(C)CCC1O (stereo not given) | > 4 mM (inactive)
Cn1c2ccccc2n2c(=S)[nH]nc12 | > 4 mM (inactive)
CCOC(=O)C1CCN(Cc2ccccc2)CC1=O (stereo not given) | > 4 mM (inactive)
c1ccc(CCc2nc(-c3cccnc3)no2)cc1 | > 4 mM (inactive)
Cc1ccccc1NC(=O)CC1NCCNC1=O (stereo not given) | > 4 mM (inactive)
Cc1nn2c(-c3ccco3)nnc2c2ccccc12 | > 4 mM (inactive)
COc1c(CC=C(C)C)c2c(c3oc(=O)c(-c4ccc(O)cc4)c(O)c13)C=CC(C)(C)O2 | > 4 mM (inactive)
C=C1C2CC[C@@]3(C)[C@H](c4ccoc4)OC(=O)C[C@]13O[C@H]1CC(=O)C(C)(C)C(CC(=O)OC)C21C (stereo not given in full) | > 4 mM (inactive)
CCC(=O)Nc1ccc(-c2nn3c(C)nnc3s2)cc1 | > 4 mM (inactive)
C=CC(C)(O)CC/C=C(\C)CCC=C(C)C (stereo not given) | > 4 mM (inactive)
Cn1c(CNc2ccccc2)cc(=O)n(C)c1=O | > 4 mM (inactive)
